20 molecules from US10208019B2, “GLP-1 receptor agonists and uses thereof” (Pfizer Inc., priority 2016, dated 2019) can be followed below.

The EC50 is the concentration at which the effect is half-maximal. Usually Emax stands for the maximal effect, on the per cent scale that the assay sets.

The target of test [1] is human GLP-1R (Homo sapiens (Human), UniProt P43220, L260F). Kind of test: CHO GLP-1R Clone C6—Assay 2: HTRF cAMP cell-based functional agonist assay (low GLP-1R density). The conditions noted are these: for EC50: CHO GLP-1R Clone C6, cAMP HTRF, geometric mean; for Emax / Assay 2 Emax (%): CHO GLP-1R Clone C6, relative to saturating concentration of full agonist GLP-1 (1 μM), arithmetic mean; for Emax: read-out: Assay 2 Emax (%). In general terms: In TR-FRET formats the signal depends on donor and acceptor labels being close together.
Chain of human GLP-1R (Homo sapiens (Human), UniProt P43220, L260F) (P43220 24-463 L260F): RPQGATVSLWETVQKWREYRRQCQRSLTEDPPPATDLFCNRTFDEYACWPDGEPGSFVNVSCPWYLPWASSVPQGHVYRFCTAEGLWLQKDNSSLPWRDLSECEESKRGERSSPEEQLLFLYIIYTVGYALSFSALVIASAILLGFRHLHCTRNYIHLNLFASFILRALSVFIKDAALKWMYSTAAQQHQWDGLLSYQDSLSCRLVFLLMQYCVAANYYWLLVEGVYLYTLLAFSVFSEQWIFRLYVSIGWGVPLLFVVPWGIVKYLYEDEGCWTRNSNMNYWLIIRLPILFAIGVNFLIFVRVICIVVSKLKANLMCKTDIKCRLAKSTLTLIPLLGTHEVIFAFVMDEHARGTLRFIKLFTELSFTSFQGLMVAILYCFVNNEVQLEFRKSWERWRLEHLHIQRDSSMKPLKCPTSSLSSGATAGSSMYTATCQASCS

Test [2] deals with human GLP-1R (Homo sapiens, UniProt P43220, G168S). As to the kind of experiment: CHO GLP-1R Clone H6—Assay 1: HTRF cAMP cell-based functional agonist assay (high GLP-1R density). To be noted: for EC50: CHO GLP-1R Clone H6, cAMP HTRF, geometric mean; for Emax: read-out: Assay 1 Emax (%), CHO GLP-1R Clone H6; for Emax / Assay 1 Emax (%): relative to saturating concentration of full agonist GLP-1 (1 μM), arithmetic mean; for Assay 1 Emax (%): CHO GLP-1R Clone H6.
Chain of human GLP-1R (Homo sapiens, UniProt P43220, G168S) (P43220 24-463 G168S limits assumed): as the sequence (P43220 24-463 L260F) above, with G145S, F237L counted along it

Counter-ions that a name gives are not always drawn. Like-named read-outs stand apart in the source and are kept apart here.

Take `COCCn1c(CN2CC[C@@H](c3cccc(OCc4ccc(Cl)cc4F)n3)[C@H](C)C2)nc2ccc(C(=O)O)cc21` (racemic) [Example 1A-26, rac-2-{[(3S,4R)-4-{6-[(4-chloro-2-fluorobenzyl)oxy]pyridin-2-yl}-3-methylpiperidin-1-yl]methyl}-1-(2-methoxyethyl)-1H-benzimidazole-6-carboxylic acid]: the figures for the EC50 on human GLP-1R [1] and at human GLP-1R [2] (Assay 1 EC50 (nM)) were 1800 nM and 70 nM, respectively. Further, the Emax at human GLP-1R [1] was 85%; on human GLP-1R [2], 80%.
In the case of `CO[C@H]1CCC[C@H]1Cn1c(CN2CCC(c3cccc(OCc4ccc(Cl)cc4F)n3)CC2)nc2ccc(C(=O)O)cc21` (racemic) [Example 1A-29, rac-2-[(4-{6-[(4-chloro-2-fluorobenzyl)oxy]pyridin-2-yl}piperidin-1-yl)methyl]-1-{[(1S,2S)-2-methoxycyclopentyl]methyl}-1H-benzimidazole-6-carboxylic acid], the 50% effective concentration (EC50) worked out at 5600 nM on human GLP-1R [1] and 260 nM on human GLP-1R [2] (Assay 1 EC50 (nM)). In addition, the figures for the maximal effect (Emax) on human GLP-1R [1] and at human GLP-1R [2] were 86% and 88%, respectively.
Regarding `COCCn1c(CN2CCC(c3cccc(OCc4ccc(Cl)cc4F)n3)CC2C)nc2ccc(C(=O)O)cc21` (single isomer, unassigned) [Example 13A-03, cis 2-{[4-{6-[(4-Chloro-2-fluorobenzyl)oxy]pyridin-2-yl}-2-methylpiperidin-1-yl]methyl}-1-(2-methoxyethyl)-1H-benzimidazole-6-carboxylic acid], at human GLP-1R [1], the EC50 was determined as 120 nM and the Emax worked out at 80%. Besides, on human GLP-1R [2], the “Assay 1 Emax (%)” value worked out at 66%. The EC50 at human GLP-1R [2] (read-out: Assay 1 EC50) came out at 5.2 nM.
On to `COCCn1c(CN2CCC(c3cccc(OCc4ccc(Cl)cc4F)n3)CC2C)nc2ccc(C(=O)O)cc21` (single isomer, unassigned) [Example 13A-04, cis 2-{[4-{6-[(4-Chloro-2-fluorobenzyl)oxy]pyridin-2-yl}-2-methylpiperidin-1-yl]methyl}-1-(2-methoxyethyl)-1H-benzimidazole-6-carboxylic acid], for which the EC50 worked out at 1400 nM at human GLP-1R [1] and 46 nM at human GLP-1R [2] (Assay 1 EC50 (nM)). The “Assay 2 Emax (%)” value on human GLP-1R [1] worked out at 83%. Besides, the “Assay 1 Emax (%)” value on human GLP-1R [2] came out at 66%.
Consider `C[C@H]1CN(c2cccc(OCc3ccc(C#N)cc3)n2)CCN1Cc1nc2ccc(C(=O)O)cc2n1CC1CCCO1` (single isomer, unassigned; diastereomer 1) [Example 14A-07], for which the EC50 at human GLP-1R [1] was 55 nM; at human GLP-1R [2] (read-out: Assay 1 EC50) it was 1.9 nM. Moreover, the “Assay 1 Emax (%)” value at human GLP-1R [2] came to 63%.
As for `C[C@H]1CN(c2cccc(OCc3ccc(C#N)cc3F)n2)CCN1Cc1nc2ccc(C(=O)O)cc2n1CC1CCCO1` (single isomer, unassigned; diastereomer 1) [Example 14A-11], at human GLP-1R [1], the EC50 was 140 nM and the “Assay 2 Emax (%)” value was 71%. The “Assay 1 Emax (%)” value on human GLP-1R [2] came to 65%. Besides, the EC50 on human GLP-1R [2] (read-out: Assay 1 EC50) was 7 nM.
Turning to `C[C@H]1CN(c2cccc(OCc3ccc(C#N)cc3)n2)CCN1Cc1nc2ccc(C(=O)O)cc2n1CC1CCCO1` (single isomer, unassigned; diastereomer 2) [Example 14A-08], the EC50 at human GLP-1R [1] was 380 nM; on human GLP-1R [2] (read-out: Assay 1 EC50), 19 nM.
The corresponding values for `C[C@H]1CN(c2cccc(OCc3ccc(C#N)cc3F)n2)CCN1Cc1nc2ccc(C(=O)O)cc2n1CC1CCCO1` (single isomer, unassigned; diastereomer 2) [Example 14A-12] are 20 nM and 1.4 nM.
Regarding `N#Cc1ccc(COc2cccc(C3CCN(Cc4nc5ccc(C(=O)O)cc5n4CC4CCCO4)CC3)n2)cc1` (single isomer, unassigned; enantiomer 1) [Example 14A-01, 2-[(4-{6-[(4-cyanobenzyl)oxy]pyridin-2-yl}piperidin-1-yl)methyl]-1-(tetrahydrofuran-2-ylmethyl)-1H-benzimidazole-6-carboxylic acid,enantiomer 1], on human GLP-1R [1], the EC50 amounted to 200 nM and the “Assay 2 Emax (%)” value was found to be 89%. The concentration giving a half-maximal response (EC50) on human GLP-1R [2] (read-out: Assay 1 EC50) was found to be 5.6 nM.
On to `COCCn1c(CN2CCN(c3cccc(OCc4ccc(Cl)cc4F)n3)CC2C(F)(F)F)nc2ccc(C(=O)O)cc21` (single isomer, unassigned; enantiomer 2) [Example 12A-02, 2-((4-(6-((4-Chloro-2-fluorobenzyl)oxy)pyridin-2-yl)-2-(trifluoromethyl)piperazin-1-yl)methyl)-1-(2-methoxyethyl)-1H-benzo[d]imidazole-6-carboxylic acid, enantiomer 2], for which the EC50 at human GLP-1R [1] turned out to be 1600 nM; at human GLP-1R [2] (Assay 1 EC50 (nM)), 36 nM. For the same molecule, the maximal effect (Emax) at human GLP-1R [1] was found to be 82%; on human GLP-1R [2], 71%.
In the case of `N#Cc1ccc(COc2cccc(C3CCN(Cc4nc5ccc(C(=O)O)cc5n4CC4CCCO4)CC3)n2)cc1` (single isomer, unassigned; enantiomer 2) [Example 14A-02, 2-[(4-{6-[(4-cyanobenzyl)oxyhoyridin-2-yl}piperidin-1-yl)methyl]-1-(tetrahydrofuran-2-ylmethyl)-1H-benzimidazole-6-carboxylic acid,enantiomer 2], on human GLP-1R [1], the EC50 stood at 1500 nM and the “Assay 2 Emax (%)” value was 69%. Further, the EC50 at human GLP-1R [2] (read-out: Assay 1 EC50) turned out to be 94 nM.
Turning to `Cn1c(CN2CCC(c3cccc(OCc4ccc(Cl)cc4F)n3)CC2)nc2ccc(C(=O)O)cc21` [Example 1A-01, 2-((4-(6-((4-Chloro-2-fluorobenzyl)oxy)pyridin-2-yl)piperidin-1-yl)methyl)-1-methyl-1H-benzo[d]imidazole-6-carboxylic acid hydrochloride], the values for the EC50 on human GLP-1R [1] and on human GLP-1R [2] (read-out: Assay 1 EC50) were 910 nM and 81 nM, respectively. Further, the maximum response (Emax) was 94% at human GLP-1R [1] and 77% on human GLP-1R [2].
Take `COCCn1c(CN2CCC(c3ccc(F)c(OCc4ccc(Cl)cc4F)n3)CC2)nc2ccc(C(=O)O)cc21` [Example 1A-04, 2-[(4-{6-[(4-chloro-2-fluorobenzyl)oxy]-5-fluoropyridin-2-yl}piperidin-1-yl)methyl]-1-(2-methoxyethyl)-1H-benzimidazole-6-carboxylic acid]: the EC50 is 350 nM on human GLP-1R [1] and 21 nM at human GLP-1R [2] (read-out: Assay 1 EC50). Besides, the figures for the Emax on human GLP-1R [1] and at human GLP-1R [2] were 82% and 79%, respectively.
`COCCn1c(CN2CCN(c3nc(OCc4ccc(Cl)cc4F)ccc3F)CC2)nc2ccc(C(=O)O)cc21` [Example 1A-05, 2-[(4-{6-[(4-chloro-2-fluorobenzyl)oxy]-3-fluoropyridin-2-yl}piperazin-1-yl)methyl]-1-(2-methoxyethyl)-1H-benzimidazole-6-carboxylic acid]: the figures for the Emax at human GLP-1R [1] and at human GLP-1R [2] were 67% and 75%, respectively.
For the molecule `COCCn1c(CN2CCN(c3nc(OCc4ccc(Cl)cc4F)ccc3F)C[C@@H]2C)nc2ccc(C(=O)O)cc21` [Example 1A-06, 2-{[(2S)-4-{6-[(4-chloro-2-fluorobenzyl)oxy]-3-fluoropyridin-2-yl}-2-methylpiperazin-1-yl]methyl}-1-(2-methoxyethyl)-1H-benzimidazole-6-carboxylic acid], the EC50 turned out to be 350 nM at human GLP-1R [1] and 29 nM at human GLP-1R [2] (read-out: Assay 1 EC50). The Emax at human GLP-1R [1] came out at 70%; at human GLP-1R [2], 84%.
The corresponding values for `COCCn1c(CN2CCN(c3ccc(F)c(OCc4ccc(Cl)cc4F)n3)C[C@@H]2C)nc2ccc(C(=O)O)cc21` [Example 1A-07, 2-{[(2S)-4-{6-[(4-chloro-2-fluorobenzyl)oxy]-5-fluoropyridin-2-yl}-2-methylpiperazin-1-yl]methyl}-1-(2-methoxyethyl)-1H-benzimidazole-6-carboxylic acid] are 45 nM, 3.9 nM, 82% and 82%.
The like results for `COCCn1c(CN2CCN(c3ccc(F)c(OCc4ccc(C#N)cc4)n3)C[C@@H]2C)nc2ccc(C(=O)O)cc21` [Example 1A-08, 2-{[(2S)-4-{6-[(4-cyanobenzyl)oxy]-5-fluoropyridin-2-yl}-2-methylpiperazin-1-yl]methyl}-1-(2-methoxyethyl)-1H-benzimidazole-6-carboxylic acid] were, in that order, 120 nM, 7.1 nM, 85% and 81%.
On to `[2H]C([2H])(Oc1cccc(C2CCN(Cc3nc4ccc(C(=O)O)cc4n3C[C@@H]3CCO3)CC2)n1)c1ccc(C#N)cc1F` [Example 1A-09, 2-{[4-(6-{[(4-cyano-2-fluorophenyl)(methyl-d2)]oxy}pyridin-2-yl)piperidin-1-yl]methyl}-1-[(2S)-oxetan-2-ylmethyl]-1H-benzimidazole-6-carboxylic acid], for which the Emax on human GLP-1R [1] turned out to be 120%; at human GLP-1R [2] it was 92%.
Regarding `COCCn1c(CN2CCC(c3cccc(OCc4ccccc4)n3)CC2)nc2ccc(C(=O)O)cc21` [Example 1A-10, 2-({4-[6-(benzyloxy)pyridin-2-yl]piperidin-1-yl}methyl)-1-(2-methoxyethyl)-1H-benzimidazole-6-carboxylic acid], the EC50 at human GLP-1R [1] was 9000 nM; at human GLP-1R [2] (read-out: Assay 1 EC50) it was 930 nM. The Emax was 100% on human GLP-1R [1] and 86% on human GLP-1R [2].
The like results for `COCCn1c(CN2CCN(c3cccc(OCc4ccc(C#N)cc4)n3)CC2)nc2ccc(C(=O)O)cc21` [Example 1A-11, 2-[(4-{6-[(4-cyanobenzyl)oxy]pyridin-2-yl}piperazin-1-yl)methyl]-1-(2-methoxyethyl)-1H-benzimidazole-6-carboxylic acid] were, in that order, 530 nM, 19 nM, 97% and 76%.
